Data set [1] in a line: Efflux ratio of apparent permeability basolateral to apical side over apical to basolateral side in human Caco-2 cells measured for 360 mins by liquid scintillation counting based analysis. The format is ADME, cell-based.
Data set [2] can be described thus: Metabolic stability in human hepatocytes assessed as intrinsic clearance measured per 10^6 cells. It is filed as ADME, cell-based, Hepatocyte. To be noted: read-out: CLH.
Data set [3] is described as follows: Apparent permeability across apical to basolateral side in human Caco-2 cells measured for 360 mins by liquid scintillation counting based analysis. It is filed as ADME, cell-based. (Caco-2 cells form a polarised layer with tight junctions and transporters.)
For data set [4], the target named is T1, Interleukin-1 receptor-associated kinase 4 (Homo sapiens, UniProt Q9NWZ3).
T1 sequence (Q9NWZ3 whole entry): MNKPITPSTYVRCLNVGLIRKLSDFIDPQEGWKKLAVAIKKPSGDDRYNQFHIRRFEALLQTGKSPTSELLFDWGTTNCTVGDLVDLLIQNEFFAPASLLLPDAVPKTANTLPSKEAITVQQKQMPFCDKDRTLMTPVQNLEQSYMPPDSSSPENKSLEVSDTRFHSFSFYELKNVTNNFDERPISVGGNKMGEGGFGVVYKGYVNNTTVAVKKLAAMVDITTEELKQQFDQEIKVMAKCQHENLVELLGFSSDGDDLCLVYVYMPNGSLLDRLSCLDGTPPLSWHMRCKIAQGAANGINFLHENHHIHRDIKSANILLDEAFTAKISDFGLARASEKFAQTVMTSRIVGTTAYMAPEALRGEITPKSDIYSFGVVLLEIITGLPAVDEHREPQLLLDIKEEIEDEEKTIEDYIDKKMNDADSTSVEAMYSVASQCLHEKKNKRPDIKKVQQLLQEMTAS
Nature of the data set: Inhibition of IRAK4 (unknown origin) in presence of ATP by enzymatic assay.

Data set [5] in a line: Metabolic stability in human liver microsomes assessed as intrinsic clearance. The format is ADME, Microsome. To be noted: read-out: CLH. For orientation: Liver microsomes are a subcellular fraction often used to study metabolism.
A short description of data set [6]: Lipophilicity, LogD at pH 7.4 of the compound by shake flask method. It is filed as physicochemical. The note with it: buffer.
Data set [7] has as its target T1, Interleukin-1 receptor-associated kinase 4. Nature of the data set: Inhibition of IRAK4 (unknown origin) phosphorylation by cell based assay.
Data set [8] concerns the target T2, Receptor-type tyrosine-protein kinase FLT3 (Homo sapiens, UniProt P36888).
T2 sequence (P36888 whole entry): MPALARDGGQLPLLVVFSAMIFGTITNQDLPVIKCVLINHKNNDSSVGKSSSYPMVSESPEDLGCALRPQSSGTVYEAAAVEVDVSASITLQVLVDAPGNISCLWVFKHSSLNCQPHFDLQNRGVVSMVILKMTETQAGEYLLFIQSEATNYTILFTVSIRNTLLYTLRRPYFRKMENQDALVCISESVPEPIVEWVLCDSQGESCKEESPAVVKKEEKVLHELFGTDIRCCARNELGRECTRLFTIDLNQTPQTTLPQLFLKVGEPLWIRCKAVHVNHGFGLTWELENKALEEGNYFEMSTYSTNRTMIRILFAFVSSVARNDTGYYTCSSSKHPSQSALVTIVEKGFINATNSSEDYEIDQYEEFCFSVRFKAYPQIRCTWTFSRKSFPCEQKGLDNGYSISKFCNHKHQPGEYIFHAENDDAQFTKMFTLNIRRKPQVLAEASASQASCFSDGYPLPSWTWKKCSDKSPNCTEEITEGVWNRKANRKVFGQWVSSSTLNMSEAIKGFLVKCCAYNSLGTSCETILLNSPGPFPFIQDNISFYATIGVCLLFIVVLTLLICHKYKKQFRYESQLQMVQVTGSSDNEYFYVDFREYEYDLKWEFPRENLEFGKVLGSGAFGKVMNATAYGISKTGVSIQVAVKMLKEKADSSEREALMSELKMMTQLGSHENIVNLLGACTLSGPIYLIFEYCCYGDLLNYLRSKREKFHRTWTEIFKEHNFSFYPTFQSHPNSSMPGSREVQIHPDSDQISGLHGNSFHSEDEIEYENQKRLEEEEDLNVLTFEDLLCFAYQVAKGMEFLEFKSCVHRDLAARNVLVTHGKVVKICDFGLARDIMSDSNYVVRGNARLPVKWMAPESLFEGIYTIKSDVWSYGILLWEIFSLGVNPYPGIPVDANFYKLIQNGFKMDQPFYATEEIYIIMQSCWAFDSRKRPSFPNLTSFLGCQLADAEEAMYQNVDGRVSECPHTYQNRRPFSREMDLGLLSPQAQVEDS
Briefly: Inhibition of FLT3 (unknown origin) in presence of 600 uM ATP.

Data set [9] deals with High affinity nerve growth factor receptor (Homo sapiens, UniProt P04629). Briefly: Inhibition of TRKA (unknown origin) in presence of 400 uM ATP.
High affinity nerve growth factor receptor, sequence (P04629 whole entry): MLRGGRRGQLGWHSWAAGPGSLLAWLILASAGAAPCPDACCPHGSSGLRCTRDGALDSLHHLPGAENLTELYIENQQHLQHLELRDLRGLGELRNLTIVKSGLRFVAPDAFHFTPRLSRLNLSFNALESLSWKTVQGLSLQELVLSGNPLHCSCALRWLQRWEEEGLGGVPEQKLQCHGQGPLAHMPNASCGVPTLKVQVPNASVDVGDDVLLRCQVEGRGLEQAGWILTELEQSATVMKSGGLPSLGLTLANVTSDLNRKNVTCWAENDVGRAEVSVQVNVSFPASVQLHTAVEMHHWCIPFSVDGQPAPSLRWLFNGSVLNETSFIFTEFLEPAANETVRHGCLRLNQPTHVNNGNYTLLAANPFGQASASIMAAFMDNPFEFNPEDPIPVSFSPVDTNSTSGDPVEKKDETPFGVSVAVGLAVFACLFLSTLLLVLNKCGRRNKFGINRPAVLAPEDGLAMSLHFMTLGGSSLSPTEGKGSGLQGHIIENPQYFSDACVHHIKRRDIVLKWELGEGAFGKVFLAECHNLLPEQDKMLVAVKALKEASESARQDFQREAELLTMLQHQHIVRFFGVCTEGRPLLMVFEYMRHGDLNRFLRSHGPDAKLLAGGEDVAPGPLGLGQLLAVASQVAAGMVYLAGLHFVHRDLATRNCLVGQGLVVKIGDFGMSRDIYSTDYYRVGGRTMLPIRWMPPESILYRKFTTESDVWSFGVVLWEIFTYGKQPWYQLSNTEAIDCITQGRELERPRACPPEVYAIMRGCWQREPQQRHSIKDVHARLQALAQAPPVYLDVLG
The species entered for data set [10] is Homo sapiens. Briefly: Selectivity index, ratio of IC50 for inhibition of FLT3 (unknown origin) to IC50 for inhibition of IRAK4 (unknown origin).
A short description of data set [11]: Metabolic stability in human cytosol assessed as intrinsic clearance. It is filed as ADME, subcellular.
The nature of data set [12]: Clearance in human. The format is ADME.
Data set [13] can be described thus: Clearance in human assessed as liver blood flow. The format is ADME, tissue-based.
Data set [14] concerns the target Interleukin-1 receptor-associated kinase 1 (Homo sapiens, UniProt P51617). Nature of the data set: Inhibition of IRAK1 (unknown origin) in presence of 25 uM ATP.
The target of data set [15] is T3, Phosphatidylinositol 4,5-bisphosphate 3-kinase catalytic subunit delta isoform (Homo sapiens, UniProt O00329).
T3 sequence (O00329 whole entry): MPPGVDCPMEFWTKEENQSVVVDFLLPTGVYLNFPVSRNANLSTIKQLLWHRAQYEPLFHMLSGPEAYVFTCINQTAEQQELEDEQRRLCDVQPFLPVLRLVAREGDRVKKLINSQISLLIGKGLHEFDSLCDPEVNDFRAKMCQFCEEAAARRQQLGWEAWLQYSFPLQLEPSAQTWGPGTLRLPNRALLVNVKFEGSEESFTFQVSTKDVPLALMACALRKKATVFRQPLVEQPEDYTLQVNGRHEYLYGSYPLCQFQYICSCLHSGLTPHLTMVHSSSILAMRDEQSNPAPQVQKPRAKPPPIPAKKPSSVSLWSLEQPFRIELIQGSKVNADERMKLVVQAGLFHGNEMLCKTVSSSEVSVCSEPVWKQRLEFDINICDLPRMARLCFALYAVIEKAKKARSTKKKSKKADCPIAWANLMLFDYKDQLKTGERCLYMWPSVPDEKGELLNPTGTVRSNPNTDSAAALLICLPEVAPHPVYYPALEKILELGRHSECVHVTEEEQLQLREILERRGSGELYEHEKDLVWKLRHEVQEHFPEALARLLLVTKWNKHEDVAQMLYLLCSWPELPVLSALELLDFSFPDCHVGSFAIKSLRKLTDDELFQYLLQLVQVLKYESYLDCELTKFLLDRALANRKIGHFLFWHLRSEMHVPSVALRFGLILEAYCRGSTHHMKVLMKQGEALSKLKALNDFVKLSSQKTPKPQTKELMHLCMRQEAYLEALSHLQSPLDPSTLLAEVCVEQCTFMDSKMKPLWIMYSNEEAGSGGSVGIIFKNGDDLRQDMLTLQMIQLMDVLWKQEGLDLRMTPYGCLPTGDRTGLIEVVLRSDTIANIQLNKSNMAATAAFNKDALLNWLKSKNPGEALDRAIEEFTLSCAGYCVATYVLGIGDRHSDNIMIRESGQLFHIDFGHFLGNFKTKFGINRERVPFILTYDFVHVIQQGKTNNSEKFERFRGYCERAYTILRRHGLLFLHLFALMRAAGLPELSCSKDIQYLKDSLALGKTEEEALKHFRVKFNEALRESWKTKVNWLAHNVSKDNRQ
Nature of the data set: Inhibition of PI3Kdelta (unknown origin) in presence of […] uM ATP.

For data set [16], the target named is Tyrosine-protein kinase BTK (Homo sapiens, UniProt Q06187). Nature of the data set: Inhibition of BTK (unknown origin) in presence of 25 uM ATP.
Tyrosine-protein kinase BTK, sequence (Q06187 whole entry): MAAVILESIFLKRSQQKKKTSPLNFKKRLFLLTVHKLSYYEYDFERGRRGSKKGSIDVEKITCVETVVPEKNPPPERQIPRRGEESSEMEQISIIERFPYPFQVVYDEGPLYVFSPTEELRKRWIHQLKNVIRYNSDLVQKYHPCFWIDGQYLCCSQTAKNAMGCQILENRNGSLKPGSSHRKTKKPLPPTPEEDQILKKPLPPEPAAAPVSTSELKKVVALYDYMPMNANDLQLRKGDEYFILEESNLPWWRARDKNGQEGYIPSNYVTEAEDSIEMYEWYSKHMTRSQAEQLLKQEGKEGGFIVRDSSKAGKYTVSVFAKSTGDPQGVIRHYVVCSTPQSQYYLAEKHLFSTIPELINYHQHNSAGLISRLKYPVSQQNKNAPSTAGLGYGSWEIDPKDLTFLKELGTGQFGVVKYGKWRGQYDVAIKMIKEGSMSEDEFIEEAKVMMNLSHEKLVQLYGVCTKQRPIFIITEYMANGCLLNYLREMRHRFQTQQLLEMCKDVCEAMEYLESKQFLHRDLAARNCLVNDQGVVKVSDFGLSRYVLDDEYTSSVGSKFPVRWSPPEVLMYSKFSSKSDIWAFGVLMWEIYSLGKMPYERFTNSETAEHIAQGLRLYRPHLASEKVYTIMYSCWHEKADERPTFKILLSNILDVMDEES
The species entered for data set [17] is Homo sapiens. Briefly: Selectivity index, ratio of IC50 for inhibition of TRKC (unknown origin) to IC50 for inhibition of IRAK4 (unknown origin).
For data set [18], the target named is BDNF/NT-3 growth factors receptor (Homo sapiens, UniProt Q16620). Briefly: Inhibition of TRKB (unknown origin) in presence of 25 uM ATP.
BDNF/NT-3 growth factors receptor, sequence (Q16620 whole entry): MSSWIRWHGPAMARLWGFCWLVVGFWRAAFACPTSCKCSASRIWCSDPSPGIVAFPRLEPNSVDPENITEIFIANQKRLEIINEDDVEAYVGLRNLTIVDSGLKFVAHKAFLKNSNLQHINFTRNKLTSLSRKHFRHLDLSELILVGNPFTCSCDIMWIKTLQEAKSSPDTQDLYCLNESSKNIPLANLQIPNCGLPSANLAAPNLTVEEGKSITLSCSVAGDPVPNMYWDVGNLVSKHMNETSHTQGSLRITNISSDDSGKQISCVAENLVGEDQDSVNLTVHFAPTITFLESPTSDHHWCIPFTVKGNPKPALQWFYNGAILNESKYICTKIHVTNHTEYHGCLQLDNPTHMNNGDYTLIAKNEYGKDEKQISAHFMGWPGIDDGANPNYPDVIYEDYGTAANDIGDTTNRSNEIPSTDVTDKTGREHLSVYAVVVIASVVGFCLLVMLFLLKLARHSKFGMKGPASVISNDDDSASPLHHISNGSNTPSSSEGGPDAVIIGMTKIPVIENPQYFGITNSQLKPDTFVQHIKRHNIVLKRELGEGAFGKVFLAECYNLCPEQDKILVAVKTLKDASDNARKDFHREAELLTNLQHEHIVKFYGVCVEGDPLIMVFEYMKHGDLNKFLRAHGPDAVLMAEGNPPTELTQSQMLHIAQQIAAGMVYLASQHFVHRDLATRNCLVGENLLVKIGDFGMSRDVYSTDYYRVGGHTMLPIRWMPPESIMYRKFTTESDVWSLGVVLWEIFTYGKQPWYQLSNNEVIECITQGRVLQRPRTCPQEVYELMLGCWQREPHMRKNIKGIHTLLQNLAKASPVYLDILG
The species entered for data set [19] is Homo sapiens. Nature of the data set: Selectivity index, ratio of IC50 for inhibition of IRAK1 (unknown origin) to IC50 for inhibition of IRAK4 (unknown origin).
The species named for data set [20] is Homo sapiens. Briefly: Selectivity index, ratio of IC50 for inhibition of PI3Kdelta (unknown origin) to IC50 for inhibition of IRAK4 (unknown origin).
Data set [21] has as its target NT-3 growth factor receptor (Homo sapiens, UniProt Q16288). Briefly: Inhibition of TRKC (unknown origin) in presence of 50 uM ATP.
The species named for data set [22] is Homo sapiens. Briefly: Selectivity index, ratio of IC50 for inhibition of TRKA (unknown origin) to IC50 for inhibition of IRAK4 (unknown origin).
The species entered for data set [23] is Homo sapiens. Briefly: Selectivity index, ratio of IC50 for inhibition of BTK (unknown origin) to IC50 for inhibition of IRAK4 (unknown origin).
The species entered for data set [24] is Homo sapiens. Briefly: Selectivity index, ratio of IC50 for inhibition of TRKB (unknown origin) to IC50 for inhibition of IRAK4 (unknown origin).

Interleukin-1 receptor-associated kinase 1, sequence (P51617 whole entry, canonical isoform): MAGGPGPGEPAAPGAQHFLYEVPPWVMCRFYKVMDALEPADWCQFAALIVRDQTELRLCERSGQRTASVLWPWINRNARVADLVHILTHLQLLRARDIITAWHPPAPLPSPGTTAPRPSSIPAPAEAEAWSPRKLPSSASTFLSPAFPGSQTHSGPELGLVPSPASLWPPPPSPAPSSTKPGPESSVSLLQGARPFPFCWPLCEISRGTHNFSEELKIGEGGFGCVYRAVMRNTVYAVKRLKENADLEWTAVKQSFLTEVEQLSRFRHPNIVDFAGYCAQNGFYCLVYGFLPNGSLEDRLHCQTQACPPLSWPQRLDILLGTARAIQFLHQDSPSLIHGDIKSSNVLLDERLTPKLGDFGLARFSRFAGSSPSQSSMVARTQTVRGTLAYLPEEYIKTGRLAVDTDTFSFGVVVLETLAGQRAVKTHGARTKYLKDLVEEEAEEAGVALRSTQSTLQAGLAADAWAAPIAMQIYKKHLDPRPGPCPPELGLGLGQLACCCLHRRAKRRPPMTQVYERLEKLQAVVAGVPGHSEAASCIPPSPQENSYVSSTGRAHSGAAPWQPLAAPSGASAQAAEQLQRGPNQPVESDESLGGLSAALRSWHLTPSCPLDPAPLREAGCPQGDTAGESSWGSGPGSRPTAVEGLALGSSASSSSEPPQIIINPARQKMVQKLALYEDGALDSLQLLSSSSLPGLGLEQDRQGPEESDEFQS
NT-3 growth factor receptor, sequence (Q16288 whole entry): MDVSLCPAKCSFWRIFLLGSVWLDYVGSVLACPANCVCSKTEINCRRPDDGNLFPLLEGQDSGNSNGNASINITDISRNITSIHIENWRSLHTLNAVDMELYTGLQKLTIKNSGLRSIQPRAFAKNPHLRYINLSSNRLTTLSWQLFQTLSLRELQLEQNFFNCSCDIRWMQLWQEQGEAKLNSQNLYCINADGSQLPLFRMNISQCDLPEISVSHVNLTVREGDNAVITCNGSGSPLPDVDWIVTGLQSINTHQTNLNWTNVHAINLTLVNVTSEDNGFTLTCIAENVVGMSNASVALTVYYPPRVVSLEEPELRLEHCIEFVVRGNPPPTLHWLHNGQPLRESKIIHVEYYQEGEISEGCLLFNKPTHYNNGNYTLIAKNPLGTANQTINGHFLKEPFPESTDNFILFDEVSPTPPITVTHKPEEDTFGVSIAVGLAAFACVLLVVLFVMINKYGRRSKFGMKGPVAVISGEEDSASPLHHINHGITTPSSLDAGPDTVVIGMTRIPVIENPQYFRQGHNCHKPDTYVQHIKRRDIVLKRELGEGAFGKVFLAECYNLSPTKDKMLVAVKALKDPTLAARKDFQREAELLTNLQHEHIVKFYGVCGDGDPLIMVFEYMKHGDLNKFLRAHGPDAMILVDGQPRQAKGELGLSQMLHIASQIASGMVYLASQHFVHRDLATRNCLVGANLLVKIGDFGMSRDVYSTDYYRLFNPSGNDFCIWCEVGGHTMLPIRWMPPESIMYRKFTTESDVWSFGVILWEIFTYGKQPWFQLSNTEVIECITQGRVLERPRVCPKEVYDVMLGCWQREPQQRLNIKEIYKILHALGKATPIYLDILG

One may read the efflux ratio as the permeability from basolateral to apical divided by that in the opposite direction, in the common usage. As a reminder, the Papp A→B is the apparent permeability from the apical to the basolateral side of a cell layer. Broadly, the IC50 is the midpoint of a concentration-inhibition curve. As a reminder, the logD is lipophilicity at a set pH, counting ionised and neutral species. High values mean a more lipophilic compound, low ones a more hydrophilic compound. For the compound `CC(=O)N1CCC(n2cc(Nc3nc(OC4CCOCC4)c4nc(C)ccc4n3)cn2)CC1`, the efflux ratio at 6 h in [1] turned out to be 2.6. Further, the hepatocyte CLint in data set [2] was 4.6 µL/min/1e6 cells. The Papp A→B at 6 h in [3] was found to be 45 ×10⁻⁶ cm/s. For the same compound, the IC50 in data set [4] is 0.003 µM; in data set [7], 0.071 µM; in [8] it was 0.03 µM; in [9], 0.02 µM. Also, the microsomal CLint in data set [5] was found to be 33 µL/min/mg. Besides, the logD in data set [6] is 2.3.
Turning to `CN1CCC(n2cc(Nc3nc(OC4(C)CC4)c4nc(-c5cnn(C)c5)ccc4n3)cn2)CC1`, the hepatocyte CLint in data set [2] came out at 1.7 µL/min/1e6 cells. Also, the figures for the IC50 in data set [4], in data set [7] and in data set [8] were 0.003 µM, 0.21 µM and 0.17 µM, respectively. Moreover, the microsomal CLint in data set [5] stood at 15 µL/min/mg. For the same compound, the logD in data set [6] was found to be 2.2. Besides, the Ratio IC50 in the data set filed under Homo sapiens [10] was less than 5.
By clearance is commonly meant the rate of elimination divided by the concentration. For the compound `Cc1ccc2nc(Nc3cnn(C4CCN(C)CC4)c3)nc(OC3(C)CC3)c2n1`, in [1], the efflux ratio at 6 h turned out to be 2.5. Also, the hepatocyte CLint in data set [2] was 1.9 µL/min/1e6 cells. In data set [3], the Papp A→B at 6 h is 20 ×10⁻⁶ cm/s. For the same compound, the results for the IC50 in [4], in data set [7] and in data set [8] were 0.003 µM, 0.1 µM and 0.016 µM, respectively. Moreover, the microsomal CLint in [5] is 18 µL/min/mg; in [11] it was less than 0.5 µL/min/mg. The logD in data set [6] was 1.8. Also, the Ratio IC50 in the data set filed under Homo sapiens [10] is more than 30. In data set [12], this compound displayed a clearance of 5 mL/min/kg. In addition, the LBF in data set [13] worked out at 20%.
For the compound `CN1CCC(n2cc(Nc3nc(OC4(C)CC4)c4nc(-c5cncnc5)ccc4n3)cn2)CC1`, in data set [2], the hepatocyte CLint was 110 µL/min/1e6 cells. Further, the IC50 was 0.0006 µM in [4]; 0.002 µM in [14]; 0.018 µM in data set [15]; 0.044 µM in [16]; 0.024 µM in data set [7]; 1.2 µM in data set [8]. Further, the results for the IC50 in [9], in data set [18] and in data set [21] were 0.019 µM, 0.082 µM and 0.036 µM, respectively. Besides, the figures for the microsomal CLint in [5] and in [11] were 96 µL/min/mg and 191 µL/min/mg, respectively. The logD in data set [6] was 2. Further, the Ratio IC50 in the data set listed under Homo sapiens [10] is more than 1000; in the data set filed under Homo sapiens [17], 60; in the data set filed under Homo sapiens [19], 3; in the data set listed under Homo sapiens [20] it was 30; in the data set filed under Homo sapiens [22], 32; in the data set listed under Homo sapiens [23] it was 70. The Ratio IC50 in the data set filed under Homo sapiens [24] was found to be 140.
As to `COC(=O)N1CCN([C@H]2CC[C@H](Nc3nc(Nc4cnn(C)c4)nc4ccc(CC#N)nc34)CC2)CC1`, in data set [1], the efflux ratio at 6 h came out at 24. Further, the Papp A→B at 6 h in data set [3] turned out to be 9.3 ×10⁻⁶ cm/s. For the same compound, the IC50 came to 0.003 µM in data set [4] and 0.17 µM in [7]. Moreover, in data set [12], the clearance was 13 mL/min/kg. The LBF in data set [13] was 70%.

These data come from ChEMBL document CHEMBL5244269, “Improving metabolic stability and removing aldehyde oxidase liability in a 5-azaquinazoline series of IRAK4 inhibitors” (Bioorg Med Chem, 2020).
